# Results published in US6689814B1, “Use of dialkyldialkylammonium halide for the preparation of a virucidal medicament intended to be administered by the systemic route” (priority 1998, dated 2004).
# Several values for one entry are separate records, joined by “and”; a condition that tells them apart may be missing. Equal entries are not always repeated.
# Key:
# [1] = test system: Herpesvirus simplex; test: Example 1: Herpes simplex nasal infection of Nude mice, Bardac intraperitoneal, 14-day monitoring; assay type: in vivo, nu/nu Nude mice; details: 0.025 mg i.p. twice a day
# Text: Three-week-old female nu/nu Nude mice, having an average weight of 6 to 8 g, divided into two batches of 20 animals, a control group receiving only the virus (curve -x- in FIG. 1), and one group being treated with Bardac® (curve -●- in FIG. 1).
# Herpesvirus simplex batch having a titer of 10′ PFU (Plaque Forming Units)/ml.
# Didecyldimethylammonium chloride (Bardac®) provided by the Swiss company Lonza and used in the form of a dilution in an isotonic saline solution.
# Inoculation of the virus: 30 μl by the nasal route of pure viral suspension, which corresponds to an installation of about 10^4 PFU (viral load). The inoculation is carried out according to the protocol described by KERN et al. in Antiviral Res., 1986, 6, 189-195. One mouse died during the nasal instillation.
# Bardac®: inoculation by the intraperitoneal route, twice a day of a dose of 0.025 mg of the product by injection, i.e. a daily dose of 0.050 mg. According to the manufacturer (LONZA), the LD50 by the intravenous route is about 0.20 mg/10 g of mouse.
# On day D0, Bardac® is injected in the morning, and 4 hours later nasal instillation of the virus is carried out, followed 6 hours later by the second injection of Bardac®; on the following days, the injections were carried out around 9 am and 5 pm.
# [2] = test system: Herpesvirus simplex; test: Example 2: Herpes simplex nasal infection of mice, Bardac intraperitoneal, 6-day monitoring and lung infectious titer; assay type: in vivo
# Method: (§1) A test similar to the one described in Example 1 was carried out using two groups of 17 mice, one Herpesvirus simplex batch having a titer of 2×10^2 PFU/ml, by inoculating a Bardac® dose of 0.018 mg by injection (that is to say a daily-dose of 0.036 mg) and following the protocol below: on day D0, Bardac® is injected and, 12 hours later, nasal instillation of the virus is carried out, followed by intraperitoneal injections of Bardac® every twelve hours. Monitoring was carried out twice per day for six days.
# (§2) At the end of the monitoring period, the lungs of the animals in the two groups were collected for culturing, in order to detect the presence of the virus. Detection of the virus is carried out as follows: the lung is homogenized in a DOUNCE® mixer and then suspended in a sterile test tube and centrifuged for 10 minutes at 2000 rpm. If the sample is not analyzed immediately, it is stored at −80° C. The infectious titer of the lung is given by titrating the virions present in 0.3 ml of centrifugation supernatant and multiplying the number of PFU by ten.
# [3] = test system: Herpesvirus simplex; test: Example 3: protocol of Example 2 with two batches of 52 animals; assay type: in vivo, mice
# Method: as §1, §2
# The protocol followed is identical to that of Example 2 with two batches of 52 animals.
# [4] = mouse, according to the manufacturer (LONZA); cited from earlier work
structure (smiles),measurement,setting,value
"CCCCCCCCCC[N+](C)(C)CCCCCCCCCC.[Cl-] [Bardac®, didecyldimethylammonium chloride]",percentage of survivals,"[1]; treated group of 20 mice, about 10^4 PFU nasal, 14 days monitoring, control 10%",45%
same,average duration of the disease,"[1]; treated group, control 8.5 days",9.2 days
same,"infectious titer in the lung, individual treated mouse",[2]; mouse alive at D6,0 PFU (7×) and 20 PFU (2×) and 100 PFU
same,"infectious titer in the lung, individual treated mouse",[2]; mouse dead at D5,0 PFU
same,"infectious titer in the lung, individual treated mouse",[2]; mouse dead at D6,0 PFU (2×) and 20 PFU and 150 PFU and 50 PFU and 200 PFU
same,total infectious titer in the lungs,"[2]; sum over the 17 treated mice, control >3200",560 PFU
same,percentage of survivals on day D6,"[2]; treated group of 17 mice, 0.018 mg i.p. every twelve hours, control 29%",59%
same,mice alive on day D6,"[2]; treated group of 17 mice, 0.018 mg i.p. every twelve hours, control five",ten
same,number of infected mice,"[2]; treated group of 17 mice, control 15",7
same,percentage of mice infected,"[2]; treated group of 17 mice, control 88%",41%
same,effect on mortality and infectious titer (in words),[2]; treated group versus control group,less affected by the virus
same,"infectious titer in the lung, individual infected treated mouse",[3]; mouse alive at D6,> 1000 PFU (2×) and 20 PFU (2×) and 120 PFU and 250 PFU and 80 PFU
same,"infectious titer in the lung, individual infected treated mouse",[3]; mouse dead at D3,> 1000 PFU and 50 PFU
same,"infectious titer in the lung, individual infected treated mouse",[3]; mouse dead at D5,300 PFU and 160 PFU and 50 PFU and 40 PFU
same,total infectious titer,"[3]; sum over the 13 infected treated mice, control >11930",>4100 PFU
same,factor by which the infectious titer (in PFU) is reduced,"[3]; treated animals versus control group, overall",3
same,number of live mice on the sixth day,"[3]; treated group of 52 mice, control 22",39
same,number of mice infected with the virus,"[3]; treated group of 52 mice, control 37",13
same,percentage of survivors on the sixth day,"[3]; treated group of 52 mice, control 42%",75%
same,percentage of mice infected with the virus,"[3]; treated group of 52 mice, control 71%",25%
same,LD50 by the intravenous route,[4],about 0.20 mg/10 g of mouse
